Assays:
[1] = test system: MV4-11 cells; assay: Cell proliferation assay (ATPlite); assay type: cell-based; details: Homo sapiens, 120 h; MV4-11 cells, five days; read-out: GI MV411 EC50
Summary of the method: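 Cells seeded at 1,000/well in Alpha-MEM with 10% FBS, treated with compound over a 10-point range (top 10 μM) or DMSO. Grown five days at 37° C, 5% CO2; viability by ATPlite luminescence.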

[2] = biological target: T1, WDR5 (Homo sapiens, UniProt P61964); assay: Fluorescence Polarization (FP) binding assay
Summary of the method: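 Displacement of fluorescein-labelled H3 (1-15) (30 nM, with 0.3 μM WDR5) or 9-Ala-FAM (20 nM, with 0.05 μM WDR5) in 80 mM sodium phosphate pH 6.5, 20 mM KCl, 0.008% Triton X-100. FP read at 485/528 nm (H3) or 480/540 nm (9-Ala-FAM); Kdisp from hyperbolic fit, mean of quadruplicates.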

[3] = biological target: T1, WDR5; assay: Surface Plasmon Resonance (SPR) assay; assay type: binding; parameters: Full length WDR5 with an N-terminal His tag and C-terminal AviTag; His tag (N); made in house; host or cells: E. coli; details: read-out: SPR Kd
Summary of the method: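 Full-length biotinylated WDR5 (N-His, C-AviTag, E. coli) captured (~3000 RU) on streptavidin SA chip; Biacore T200. HBS-EP pH 7.4 plus 5% DMSO running buffer, 40 μl/min.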

SMILES: COc1cnc(N2CCC=C(c3c(F)cc(N4CCN(C)[C@@H](C)C4)c(NC(=O)c4c[nH]c(=O)cc4C(F)F)c3F)C2)nc1 [Example 49, (S)-4-(difluoromethyl)-N-(6-(3,4-dimethylpiperazin-1-yl)-2,4-difluoro-3-(1-(5-methoxypyrimidin-2-yl)-1,2,5,6-tetrahydropyridin-3-yl)phenyl)-6-oxo-1,6-dihydropyridine-3-carboxamide]
- EC50 [1]: 332 nM
- IC50 [2]: 21.7 nM
- Kd [3]: 2.68 nM

SMILES: C[C@@H]1CN(c2ccc(-c3c(F)cc(N4C[C@@H](C)N(C)[C@@H](C)C4)c(NC(=O)c4c[nH]c(=O)cc4C(F)(F)F)c3F)cn2)C[C@H](C)O1 [Example 62, N-(3-(6-((2S,6R)-2,6-dimethylmorpholino)pyridin-3-yl)-2,4-difluoro-6-((3S,5R)-3,4,5-trimethylpiperazin-1-yl)phenyl)-6-oxo-4-(trifluoromethyl)-1,6-dihydropyridine-3-carboxamide]
- EC50 [1]: 24.9 nM
- IC50 [2]: 14.4 nM
- Kd [3]: 2.14 nM

SMILES: C[C@H]1CN(c2cc(F)c(-c3ccc(N4CCOCC4)nc3)c(F)c2NC(=O)c2ccc(F)cc2C(F)F)CCN1C [Example 180, (S)-2-(Difluoromethyl)-N-(6-(3,4-dimethylpiperazin-1-yl)-2,4-difluoro-3-(6-morpholinopyridin-3-yl)phenyl)-4-fluorobenzamide]
- EC50 [1]: 198 nM
- IC50 [2]: 22.4 nM
- Kd [3]: 2.51 nM

SMILES: C[C@@H]1CN(c2ccc(-c3c(F)cc(N4CCN(C)[C@@H](C)C4)c(NC(=O)c4c[nH]c(=O)cc4C(F)F)c3F)cn2)C[C@H](C)O1 [Example 182, 4-(Difluoromethyl)-N-(3-(6-((2S,6R)-2,6-dimethylmorpholino)pyridin-3-yl)-6-((S)-3,4-dimethylpiperazin-1-yl)-2,4-difluorophenyl)-6-oxo-1,6-dihydropyridine-3-carboxamide]
- EC50 [1]: 31 nM
- IC50 [2]: 25.4 nM
- Kd [3]: 1.15 nM

SMILES: C[C@@H]1CN(c2cc(F)c(C3=CCCN(C(=O)c4csc(CN(C)C)n4)C3)c(F)c2NC(=O)c2c[nH]c(=O)cc2C(F)(F)F)C[C@H](C)N1C [Example 189, N-(3-(1-(2-((dimethylamino)methyl)thiazole-4-carbonyl)-1,2,5,6-tetrahydropyridin-3-yl)-2,4-difluoro-6-((3S,5R)-3,4,5-trimethylpiperazin-1-yl)phenyl)-6-oxo-4-(trifluoromethyl)-1,6-dihydropyridine-3-carboxamide]
- EC50 [1]: 487 nM
- IC50 [2]: 12.7 nM
- Kd [3]: 1.51 nM

SMILES: C[C@@H]1CN(c2cc(F)c(-c3ccc(C(N)=O)c(F)c3F)c(F)c2NC(=O)c2c[nH]c(=O)cc2C(F)(F)F)C[C@H](C)N1C [Example 26, N-(4′-carbamoyl-2,2′,3′,6-tetrafluoro-4-((3S,5R)-3,4,5-trimethylpiperazin-1-yl)-[1,1′-biphenyl]-3-yl)-6-oxo-4-(trifluoromethyl)-1,6-dihydropyridine-3-carboxamide]
- EC50 [1]: 316 nM
- IC50 [2]: 22.2 nM
- Kd [3]: 4.49 nM

SMILES: C[C@@H]1CN(c2ncc(-c3c(F)cc(N4CCN(C)[C@@H](C)C4)c(NC(=O)c4c[nH]c(=O)cc4C(F)F)c3F)cn2)C[C@@H](C)O1 [Example 115, 4-(Difluoromethyl)-N-(3-(2-((2R,6R)-2,6-dimethylmorpholino)pyrimidin-5-yl)-6-((S)-3,4-dimethylpiperazin-1-yl)-2,4-difluorophenyl)-6-oxo-1,6-dihydropyridine-3-carboxamide]
- EC50 [1]: 9.38 nM
- IC50 [2]: 13.8 nM
- Kd [3]: 0.7 nM

SMILES: C[C@@H]1CN(c2ncc(-c3c(F)cc(N4C[C@@H](C)N(C)[C@@H](C)C4)c(NC(=O)c4c[nH]c(=O)cc4C(F)(F)F)c3F)cn2)C[C@H](C)O1 [Example 8, N-(3-(2-((2S,6R)-2,6-dimethylmorpholino)pyrimidin-5-yl)-2,4-difluoro-6-((3S,5R)-3,4,5-trimethylpiperazin-1-yl)phenyl)-6-oxo-4-(trifluoromethyl)-1,6-dihydropyridine-3-carboxamide]
- EC50 [1]: 31 nM
- IC50 [2]: 21.3 nM
- Kd [3]: 0.82 nM

SMILES: C[C@H]1CN(c2cc(F)c(C3=CCN(c4ccnc(C#N)n4)C3)c(F)c2NC(=O)c2c[nH]c(=O)cc2C(F)F)CCN1C [Example 106, (S)—N-(3-(1-(2-cyanopyrimidin-4-yl)-2,5-dihydro-1H-pyrrol-3-yl)-6-(3,4-dimethylpiperazin-1-yl)-2,4-difluorophenyl)-4-(difluoromethyl)-6-oxo-1,6-dihydropyridine-3-carboxamide]
- EC50 [1]: 27.6 nM
- IC50 [2]: 15 nM
- Kd [3]: 0.93 nM

SMILES: C[C@@H]1CN(c2cc(F)c(C3=CCN(C(=O)OC4CC(F)(F)C4)CC3)c(F)c2NC(=O)c2c[nH]c(=O)cc2C(F)(F)F)C[C@H](C)N1C [Example 135, 3,3-Difluorocyclobutyl 4-(2,6-difluoro-3-(6-oxo-4-(trifluoromethyl)-1,6-dihydropyridine-3-carboxamido)-4-((3S,5R)-3,4,5-trimethylpiperazin-1-yl)phenyl)-5,6-dihydropyridine-1(2H)-carboxylate]
- EC50 [1]: 67.4 nM
- IC50 [2]: 12.5 nM
- Kd [3]: 2.31 nM

SMILES: C[C@@H]1CN(c2nc(-c3c(F)cc(N4CCN(C)[C@@H](C)C4)c(NC(=O)c4c[nH]c(=O)cc4C(F)(F)F)c3F)cs2)C[C@H](C)O1 [Example 131, N-(3-(2-((2S,6R)-2,6-dimethylmorpholino)thiazol-4-yl)-6-((S)-3,4-dimethylpiperazin-1-yl)-2,4-difluorophenyl)-6-oxo-4-(trifluoromethyl)-1,6-dihydropyridine-3-carboxamide]
- EC50 [1]: 208 nM
- IC50 [2]: 16.6 nM
- Kd [3]: 5.12 nM

SMILES: C[C@@H]1CN(c2nccc(-c3c(F)cc(N4CCN(C)[C@@H](C)C4)c(NC(=O)c4ccc(F)cc4C(F)F)c3F)n2)C[C@H](C)O1 [Example 32, 2-(Difluoromethyl)-N-(3-(2-((2S,6R)-2,6-dimethylmorpholino)pyrimidin-4-yl)-6-((S)-3,4-dimethylpiperazin-1-yl)-2,4-difluorophenyl)-4-fluorobenzamide Formic Acid]
- EC50 [1]: 286 nM
- IC50 [2]: 33 nM
- Kd [3]: 5.07 nM

SMILES: C[C@@H]1CN(c2ccc(-c3c(F)cc(N4CCN(C)[C@@H](C)C4)c(NC(=O)c4c[nH]c(=O)cc4C(F)(F)F)c3F)cn2)CCO1 [Example 169, N-(6-((S)-3,4-dimethylpiperazin-1-yl)-2,4-difluoro-3-(6-((R)-2-methylmorpholino)pyridin-3-yl)phenyl)-6-oxo-4-(trifluoromethyl)-1,6-dihydropyridine-3-carboxamide]
- EC50 [1]: 51.4 nM
- IC50 [2]: 16.7 nM
- Kd [3]: 0.99 nM

SMILES: COc1cc(N2CC=C(c3c(F)cc(N4C[C@@H](C)N(C)[C@@H](C)C4)c(NC(=O)c4c[nH]c(=O)cc4C(F)(F)F)c3F)CC2)ncn1 [Example 140, N-(2,4-difluoro-3-(1-(6-methoxypyrimidin-4-yl)-1,2,3,6-tetrahydropyridin-4-yl)-6-((3S,5R)-3,4,5-trimethylpiperazin-1-yl)phenyl)-6-oxo-4-(trifluoromethyl)-1,6-dihydropyridine-3-carboxamide]
- EC50 [1]: 30.9 nM
- IC50 [2]: 14.5 nM
- Kd [3]: 1.4 nM

SMILES: C[C@@H]1CN(c2cc(F)c(-c3ccc(C(=O)NC(C)(C)CC(C)(C)C)c(F)c3F)c(F)c2NC(=O)c2c[nH]c(=O)cc2C(F)(F)F)C[C@H](C)N1C [Example 27, 6-Oxo-N-(2,2′,3′,6-tetrafluoro-4′-((2,4,4-trimethylpentan-2-yl)carbamoyl)-4-((3S,5R)-3,4,5-trimethylpiperazin-1-yl)-[,1′-biphenyl]-3-yl)-4-(trifluoromethyl)-1,6-dihydropyridine-3-carboxamide]
- EC50 [1]: 221 nM
- IC50 [2]: 34.8 nM
- Kd [3]: 1.13 nM

SMILES: C[C@H]1CN(c2cc(F)c(-c3ccc(OC4CCOCC4)nc3)c(F)c2NC(=O)c2c[nH]c(=O)cc2C(F)(F)F)CCN1C [Example 186, (S)—N-(6-(3,4-dimethylpiperazin-1-yl)-2,4-difluoro-3-(6-((tetrahydro-2H-pyran-4-yl)oxy)pyridin-3-yl)phenyl)-6-oxo-4-(trifluoromethyl)-1,6-dihydropyridine-3-carboxamide]
- EC50 [1]: 39.9 nM
- IC50 [2]: 26.9 nM
- Kd [3]: 0.8 nM

SMILES: C[C@@H]1CN(c2cc(F)c(-c3cc(C(N)=O)c(F)cc3F)c(F)c2NC(=O)c2c[nH]c(=O)cc2C(F)(F)F)C[C@H](C)N1C [Example 30, N-(5′-carbamoyl-2,2′,4′,6-tetrafluoro-4-((3S,5R)-3,4,5-trimethylpiperazin-1-yl)-[1,1′-biphenyl]-3-yl)-6-oxo-4-(trifluoromethyl)-1,6-dihydropyridine-3-carboxamide]
- EC50 [1]: 18500 nM
- IC50 [2]: 85.9 nM
- Kd [3]: 23.6 nM

SMILES: C[C@@H]1CN(c2cc(F)c(-c3cnc(N4CC5CCC(C4)O5)nc3)c(F)c2NC(=O)c2c[nH]c(=O)cc2C(F)F)C[C@H](C)N1C [Example 156, N-(3-(2-(8-oxa-3-azabicyclo[3.2.1]octan-3-yl)pyrimidin-5-yl)-2,4-difluoro-6-((3S,5R)-3,4,5-trimethylpiperazin-1-yl)phenyl)-4-(difluoromethyl)-6-oxo-1,6-dihydropyridine-3-carboxamide]
- EC50 [1]: 81.2 nM
- IC50 [2]: 15.4 nM
- Kd [3]: 1.96 nM

From patent US20200385371A1 (Propellon Therapeutics Inc., priority 2017, published 2020)
